Laboratory results reported in patent US20230041996A1, “CALCIUM-SENSING RECEPTOR AGONIST COMPOUND AND APPLICATION THEREOF” (BEIJING TUO JIE BIOPHARMACEUTICAL CO. LTD., priority 2019, published 2023).
Square brackets hold non-standard residues; d marks the D form. Peptide text beside a SMILES is read from it. * marks the point of attachment. Cys(free,S-linked) = N[C@@H](CS*)C(=O)O; d2Thi = N[C@H](Cc1cccs1)C(=O)O; dAbu = CC[C@@H](N)C(=O)O

How the values were obtained:
[1] = test system: normal rats (Sprague Dawley); test: In vivo efficacy in normal rat model after a single dose (plasma parathyroid hormone, serum calcium); conditions: 3 mg/kg intravenous single dose; for serum calcium level: FIG. 3; for plasma parathyroid hormone level: within 4 h, FIG. 2
From the text: 3.4 Evaluation of In Vivo Efficacy of Some of the Compounds Disclosed Herein in a Normal Rat Model after a Single Dose 3.4.1 Objective: To Evaluate the Efficacy of the Test Compounds in Reducing Plasma Parathyroid Hormone Levels after a Single Dose in a Normal Rat Model.
SPF normal adult rats (Sprague Dawley, or SD) with weight of 250-350 g were fed with normal diet in an animal room for 7 days. Rats were randomized into groups of 6, half female and half male, and numbered. One day before the start of treatment, 540 μL of blood was collected from each rat, and the plasma parathyroid hormone level and the serum calcium concentration were measured as baseline. The plasma was separated by K2-EDTA anticoagulation. Blood was collected through jugular vein and preserved on ice after collection. The whole blood was centrifuged at 6,800 rpm for 6 minutes at 2-8° C. The supernatant, i.e., the plasma, was collected and preserved at 2-8° C. For serum separation, blood was collected through jugular vein, let stand at room temperature for 1 h, and centrifuged at room temperature at 3,500 rpm for 10 min. The supernatant, i.e., the serum, was collected and preserved at room temperature. The animals were fasted overnight with free access to water the day before treatment. The day after blood sampling, example compounds 13, 17, 31 and etelcalcetide (AMG-416) were dissolved in a phosphate buffered saline (PBS, Gibco). The rats were intravenously administered with example compounds 13, 17, 31 or etelcalcetide 3 mg/kg or an equal volume of PBS buffer. Subsequently, blood samples were collected as per the following procedures for measuring the parameters. 100 μL of blood was collected at 1 h, 2 h and 4 h post-dose, and the plasma was separated according to the procedures above. The plasma parathyroid hormone levels were measured using the Rat Intact PTH ELISA Kit (Quidel—Immunotopics, Cat. #: 60-2500; ELISA: Enzyme-linked immunosorbent assay) according to the kit instructions. The detailed procedures are as follows: using the streptavidin-preplated reaction strips provided in the kit, 25 μL of reference standard, control or plasma samples were added to the wells. Biotinylated rat parathyroid hormone antibody and rat parathyroid hormone/HRP binding antibody were mixed at a ratio of 1:1, and 100 μL of the mixed solution was added to each well. The reaction strip was sealed with a sealing film, wrapped with an aluminum foil for storage in dark, and shaken on a horizontal shaker at room temperature for 3 h at a rotation speed of 220 rpm. The solutions in the wells were discarded. 350 μL of cleaning working solution was added to the wells for washing and then discarded; 5 washes were performed with the same procedures. Finally the wells were dried. To each well was added 150 μL of horseradish peroxidase ELISA substrate. The reaction strip was sealed with a sealing film, wrapped with an aluminum foil for storage in dark, and shaken on a horizontal shaker at room temperature for 30 min at a rotation speed of 180-220 rpm. 100 μL of ELISA terminating solution was added to each well, and the strip was shaken at 180-220 rpm for 1 min on a horizontal shaker at room temperature. The absorbance at 450 nm in each well was detected within 10 min after the addition of the ELISA terminating solution, while the absorbance at 620 nm was subtracted as background. A mixture of horseradish peroxidase ELISA substrate 150 μL and ELISA terminating solution 100 μL was used as the blank control in the absorbance detection. A standard curve according to the absorbance of the reference standard was plotted, and the actual plasma parathyroid hormone concentration was calculated according to the absorbance of other samples and the standard curve. The determination of the serum calcium concentration was conducted according to the procedures of the relevant kit.

[2] = test system: rat peritoneal mast cells; test: In vitro histamine release in rat peritoneal mast cells (histamine ELISA); assay type: cell-based; conditions: for Relative fold of histamine release in vitro: test compound final concentration 10 μM, 15 min at 37° C., relative to PBS buffer (1.00); for histamine release levels in rat peritoneal mast cells in vitro relative to etelcalcetide: 10 μM, comparison with etelcalcetide
How it was run: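 Rat peritoneal mast cells, washed into HBSS + 25 mM HEPES + 1 mM CaCl2 (pH 7.4), were exposed to test compounds at 10 μM final, 48/80 at 4 μg/mL or vehicle for 15 min at 37° C. Histamine released into the supernatant was quantified by ELISA.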

[3] = test system: 5/6 nephrectomized rats; test: In vivo efficacy in 5/6 nephrectomized rat model after continuous administration (plasma parathyroid hormone, serum calcium)
From the text: 3.5.1 Objective: to evaluate the efficacy of some of the compounds disclosed herein in reducing plasma parathyroid hormone level and serum calcium level after continuous administration in a 5/6 nephrectomized rat model.
The rats were adapted. After anesthesia, ⅔ of the left kidney was surgically resected, and after 1 week of recovery, the right kidney was resected to establish the 5/6 nephrectomized rat model. After the second resection, the animals were normally fed for 2 weeks, tested for creatinine (CREA) and plasma parathyroid hormone level, and randomized as per the parathyroid hormone level into 4 groups of 10, including normal saline group, compound 17—low dose group, compound 17—high dose group and etelcalcetide group. After randomization, the normal saline group, compound 17—low dose group, compound 17—high dose group and etelcalcetide group were respectively administered with 1 dose of normal saline, 1 mg/kg of compound 17, 2 mg/kg of compound 17 and 1 mg/kg of etelcalcetide through the tail vein daily for 28 days. During the treatment period, parameters such as animal weight, plasma parathyroid hormone level and serum calcium were detected. The first day of treatment was taken as day 1.

SMILES	serum calcium level [1]	plasma parathyroid hormone level [1]	Relative fold of histamine release in vitro [2]	histamine release levels in rat peritoneal mast cells in vitro relative to etelcalcetide [2]	plasma parathyroid hormone level compared with the normal saline group ([3]; 1 mg/kg and 2 mg/kg daily via tail vein for 28 days)	suppression of plasma parathyroid hormone level versus etelcalcetide at the same dose ([3]; 1 mg/kg, 6 h and 16 h post-dose, FIG. 4)	serum calcium reduction ([3]; after administration on days 1, 14 and 28)	persistence to reduce serum calcium levels versus etelcalcetide at the same dose ([3]; day 28)	maximal reduction in serum calcium versus etelcalcetide at the same dose ([3]; days 1, 14 and 28, FIG. 5)	extent of serum calcium reduction with the period of treatment ([3]; minimum of serum calcium on days 14 and 28 compared to day 1)
CC(=O)N[C@H](CSSC[C@H](N)C(=O)O)C(=O)N[C@H](CCCNC(=N)N)C(=O)N[C@H](CCCNC(=N)N)C(=O)N[C@H](Cc1cccs1)C(=O)N[C@H](CCCNC(=N)N)C(=O)N[C@H](C)C(=O)N[C@H](CCCNC(=N)N)C(N)=O [Compound 13, Ac-c(C)-r-r-(D-2-Thi)-r-a-r-NH2] (Ac-[dC](Cys(free,S-linked))[dR][dR][d2Thi][dR][dA][dR]-NH2)	corresponding reduction	completely reduced	2.38							
CC[C@@H](NC(=O)[C@@H](CCCNC(=N)N)NC(=O)[C@@H](CCCNC(=N)N)NC(=O)[C@@H](CSSC[C@H](N)C(=O)O)NC(C)=O)C(=O)N[C@H](CCCNC(=N)N)C(=O)N[C@H](C)C(=O)N[C@H](CCCNC(=N)N)C(N)=O [Compound 17, Ac-c(C)-r-r-(D-Abu)-r-a-r-NH2] (Ac-[dC](Cys(free,S-linked))[dR][dR][dAbu][dR][dA][dR]-NH2)	corresponding reduction	completely reduced	0.97	reduction in histamine release levels	reduced the plasma parathyroid hormone level in rats in a dose dependent manner	slightly superior or comparable magnitude to that of etelcalcetide	reversible serum calcium reduction	superior and significantly different	comparable to etelcalcetide	did not increase with the period of treatment
CC[C@@H](NC(=O)[C@@H](CCCNC(=N)N)NC(=O)[C@@H](CCCNC(=N)N)NC(=O)[C@@H](CSSC[C@H](N)C(=O)O)NC(C)=O)C(=O)N[C@H](CCCNC(=N)N)C(=O)N[C@H](CO)C(=O)N[C@H](CCCNC(=N)N)C(N)=O [Compound 31, Ac-c(C)-r-r-(D-Abu)-r-s-r-NH2] (Ac-[dC](Cys(free,S-linked))[dR][dR][dAbu][dR][dS][dR]-NH2)	corresponding reduction	completely reduced	1.29	reduction in histamine release levels						
